Data taken from PMC10522709, “Rational design and characterization of cell-selective antimicrobial peptides based on a bioactive peptide from Crocodylus siamensis hemoglobin” (Scientific Reports, 2023).
Ends that are not written are not given here.

Columns and labels:
[1] = test system: S. epidermidis (ATCC12228); experiment: Time-killing kinetics assay; type: cell-based, Staphylococcus epidermidis; conditions: 1 × MIC, 37 °C, colony count
Method: The time-killing kinetics of peptide was determined as described previously by Yaraksa et al.[16] In short, E. coli (ATCC25922) and S. epidermidis (ATCC12228) cells grown overnight were diluted in the Nutrient broth to a concentration of 1 × 10^6 CFU/mL. The diluted bacterial suspension (50 µL) was incubated with the peptide solution (50 µL, final concentration = 1 × MIC or 2 × MIC) at 37 °C. 10 µL of the mixture was taken at regular time intervals (0, 15, 30, 60, 180, 360, 540 and 720 min for 1 × MIC and 0, 30, 60, 180, 360, 720, 1440, 2160 and 2880 min for 2 × MIC), diluted and cultured on nutrient agar plates for 24 h. Bacterial cells were then counted and a graph of the log CFU/mL against incubation time was plotted to evaluate the rate at which peptides kill bacterial cells.

[2] = test system: Klebsiella pneumoniae (ATCC 27736); type: cell-based; conditions: ATCC 27736, 18 h
Method: (§1) Broth microdilution assays were performed as reported previously. In short, the bacteria including Escherichia coli (ATCC 25922), Klebsiella pneumoniae (ATCC 27736), Pseudomonas aeruginosa (ATCC 27853), Bacillus subtilis (ATCC 6633), Staphylococcus aureus (ATCC 25923) and Staphylococcus epidermidis (ATCC 12228) were grown in Nutrient broth to mid-log phase at 37 °C. The bacterial suspension (50 μL, concentration of 1 × 10^6 CFU/mL) was loaded into a well with serially diluted peptide (50 µL, final concentrations ranging from 0–200 μg/mL) in a sterile 96-well plate and incubated at 37 °C for 18 h. The optical density (OD) at 600 nm was measured using a microplate reader (ALLSHENG, Zhejiang, China) in order to determine the growth of the bacteria. The inhibition was estimated using the formula; %inhibition=OD600ofcontrol-OD600ofsample/OD600ofcontrol-OD600ofblank×100 where minimal inhibitory concentration (MIC) is defined as the minimum concentration that inhibited 90% of bacterial growth.

[3] = test system: Staphylococcus epidermidis (ATCC 12228); type: cell-based; conditions: ATCC 12228, 18 h
Method: as §1

[4] = test system: Escherichia coli (ATCC 25922); type: cell-based; conditions: ATCC 25922, 18 h
Method: as §1

[5] = test system: Bacillus subtilis (ATCC 6633); type: cell-based; conditions: ATCC 6633, 18 h
Method: as §1

[6] = test system: Staphylococcus aureus (ATCC 25923); type: cell-based; conditions: ATCC 25923, 18 h
Method: as §1

[7] = test system: Pseudomonas aeruginosa (ATCC 27853); type: cell-based; conditions: ATCC 27853, 18 h
Method: as §1

[8] = test system: Klebsiella pneumoniae (ATCC 27736); type: cell-based; conditions: ATCC 27736, 24 h
Method: as §1
(§2) In order to evaluate the minimal bactericidal concentration (MBC)—the lowest concentration that terminates the growth of bacteria on an agar plate—of the peptide, co-culture medium (100 μL) from each well after the microdilution assay was spread on a nutrient agar plate. Plates were maintained at 37 °C for 24 h and the number of colonies formed was counted to evaluate antimicrobial activity.

[9] = test system: Staphylococcus epidermidis (ATCC 12228); type: cell-based; conditions: ATCC 12228, 24 h
Method: as §1, §2

[10] = test system: Escherichia coli (ATCC 25922); type: cell-based; conditions: ATCC 25922, 24 h
Method: as §1, §2

[11] = test system: Bacillus subtilis (ATCC 6633); type: cell-based; conditions: ATCC 6633, 24 h
Method: as §1, §2

[12] = test system: Staphylococcus aureus (ATCC 25923); type: cell-based; conditions: ATCC 25923, 24 h
Method: as §1, §2

[13] = test system: Pseudomonas aeruginosa (ATCC 27853); type: cell-based; conditions: ATCC 27853, 24 h
Method: as §1, §2

[14] = test system: human peripheral blood mononuclear cells (PBMC); type: cell-based; conditions: 24 h
Method: (§3) Human peripheral blood mononuclear cells (PBMC), African green monkey kidney cells (Vero), human keratinocyte cells (HaCaT) and mouse preadipocytes (3T3-L1) were used to evaluate the cytotoxicity of peptides by the MTT assay. PBMCs were isolated using Ficoll medium (GE Healthcare, Uppsala, Sweden) as described by Jangpromma et al.[28]. The PBMCs were then cultured in RPMI 1640, while Vero, HaCaT and 3T3-L1 cells were cultured in DMEM. All culture mediums were supplemented with 10% heat-inactivated fetal bovine serum (FBS) and 1% antibiotic:antimycotic (Gibco, USA). The cells were cultured at 37 °C with 5% CO2/95% relative humidity. After that, PBMC (2 × 10^6 cells/well), Vero (1 × 10^4 cells/well), HaCaT (1 × 10^4 cells/well) and 3T3-L1 (1 × 10^4 cells/well) were individually seeded into 96-well plate and cultured at 37 °C overnight. Next, two-fold serially diluted peptides (3.13–200 μg/mL) were added to the cell culture. After incubation in 5% (v/v) CO2 incubator for 24 h, the medium culture was removed and MTT solution ([…] final concentration in fresh medium culture) was added to the cells and incubated for 30 min. Thereafter, the medium was removed and DMSO (100 µL) was added to each well to dissolve the formazan crystals. The optical density at 570 nm was determined using a microplate reader (ALLSHENG, Zhejiang, China). The cytotoxicity of IL15.3 against Vero, HaCaT and 3T3-L1 cells in the absence of FBS was also measured by the MTT assay to confirm the peptide is not sequestered by proteins in the serum causing artificially low cytotoxicity against eukaryotic cells.
(§4) Cell viability was determined using the equation: %cellviability=OD570ofsample/OD570ofuntreatedcontrol×100
(§5) GraphPad Prism8 (San Diego, CA, USA) was used to calculate IC50 values using a non-linear regression model.

[15] = test system: human keratinocyte cells (HaCaT); type: cell-based; conditions: 24 h
Method: as §3, §4, §5

## IKHWKKVWKHAKKVL [IL15.3]
[1]; 1 × 10^6 CFU/mL
  time to inhibit the growth kinetic rate: ≤ 180 min
[1]
  time to completely stop growth: 360 min
[2]
  MIC: 10 mg/L
[3]
  MIC: 9 mg/L
[4]
  MIC: 4 mg/L
[5]
  MIC: 8 mg/L
[6]
  MIC: 12 mg/L
[7]
  MIC: 10 mg/L
other
  increase in antimicrobial activity vs QL17: > 1000 fold
[8]
  MBC: 25 mg/L
[9]
  MBC: 12 mg/L
[10]
  MBC: 6 mg/L
[11]
  MBC: 12 mg/L
[12]
  MBC: 25 mg/L
[13]
  MBC: 18 mg/L
[14]
  IC50 PBMC: >200 mg/L
[15]
  IC50 HaCaT: >200 mg/L
